Laboratory results reported in the supplement of paper PMC10307832.

How the values were obtained:
Test in all cases: relative viability (nuclei count vs DMSO), 5 days (fraction); higher = more cells survive
Metformin + Lapatinib = compound: CN(C)C(=N)NC(=N)N [Metformin] + CS(=O)(=O)CCNCc1ccc(-c2ccc3ncnc(Nc4ccc(OCc5cccc(F)c5)c(Cl)c4)c3c2)o1 [Lapatinib] (partner 2 µM)
Outline: (§1)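 Cells from lung cancer lines were seeded into 1536-well plates and, one day later, dosed by pin tool. Treatments were either a single drug or a fixed dose of an anchor drug with five library-drug doses (not always all listed) in √10 steps. After 5 days, nuclei were stained in a one-step fixation (final 0.05% Triton X-100, 1% formaldehyde, 1 ug/ml Hoechst) and counted on 4× images, and relative viability is the treated-to-vehicle nuclei ratio, as the median of duplicate plates.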

Metformin + Pictilisib = compound: CN(C)C(=N)NC(=N)N [Metformin] + CS(=O)(=O)N1CCN(Cc2cc3nc(-c4cccc5[nH]ncc45)nc(N4CCOCC4)c3s2)CC1 [Pictilisib] (partner 1 µM)
Outline: as §1

Apatinib + Lapatinib = compound: N#CC1(c2ccc(NC(=O)c3cccnc3NCc3ccncc3)cc2)CCCC1 [Apatinib] + CS(=O)(=O)CCNCc1ccc(-c2ccc3ncnc(Nc4ccc(OCc5cccc(F)c5)c(Cl)c4)c3c2)o1 [Lapatinib] (partner 2 µM)
Outline: as §1

Apatinib + Alpelisib = compound: N#CC1(c2ccc(NC(=O)c3cccnc3NCc3ccncc3)cc2)CCCC1 [Apatinib] + Cc1nc(NC(=O)N2CCC[C@H]2C(N)=O)sc1-c1ccnc(C(C)(C)C(F)(F)F)c1 [Alpelisib] (partner 2 µM)
Outline: as §1

Row | Cell Line | relative viability (Metformin + Lapatinib; first compound 10 µM) | relative viability (Metformin + Lapatinib; first compound 31.62 µM) | relative viability (Metformin + Lapatinib; first compound 100 µM) | relative viability (Metformin + Lapatinib; first compound 316.23 µM) | relative viability (Metformin + Lapatinib; first compound 1000 µM) | relative viability (Metformin + Pictilisib; first compound 10 µM) | relative viability (Metformin + Pictilisib; first compound 31.62 µM) | relative viability (Metformin + Pictilisib; first compound 100 µM) | relative viability (Metformin + Pictilisib; first compound 316.23 µM) | relative viability (Metformin + Pictilisib; first compound 1000 µM) | relative viability (Apatinib + Lapatinib; first compound 0.08 µM) | relative viability (Apatinib + Lapatinib; first compound 0.253 µM) | relative viability (Apatinib + Lapatinib; first compound 0.8 µM) | relative viability (Apatinib + Lapatinib; first compound 2.53 µM) | relative viability (Apatinib + Lapatinib; first compound 8 µM) | relative viability (Apatinib + Alpelisib; first compound 0.08 µM) | relative viability (Apatinib + Alpelisib; first compound 0.253 µM) | relative viability (Apatinib + Alpelisib; first compound 0.8 µM) | relative viability (Apatinib + Alpelisib; first compound 2.53 µM) | relative viability (Apatinib + Alpelisib; first compound 8 µM)
1 | NCI-H1563 | 0.999 | 0.912 | 1.02 | 0.924 | 0.783 | 0.605 | 0.651 | 0.62 | 0.624 | 0.646 | 0.682 | 1.03 | 0.943 | 0.891 | 0.834 | 0.967 | 0.982 | 0.929 | 0.93 | 0.804
2 | LCLC-97TM1 | 0.888 | 1.36 | 0.888 | 1.08 | 1.53 | 0.257 | 0.196 | 0.255 | 0.234 | 0.223 | 0.845 | 0.818 | 0.586 | 0.604 | 0.475 | 0.281 | 0.21 | 0.256 | 0.206 | 0.154
3 | RERF-LC-KJ | 0.685 | 0.777 | 0.777 | 0.775 | 0.915 | 0.57 | 0.55 | 0.53 | 0.402 | 0.614 | 0.787 | 0.851 | 0.817 | 0.693 | 0.698 | 0.857 | 0.875 | 0.779 | 0.751 | 0.823
4 | NCI-H2170 | 0.273 | 0.247 | 0.302 | 0.288 | 0.288 | 0.3 | 0.283 | 0.301 | 0.31 | 0.264 | 0.307 | 0.241 | 0.466 | 0.271 | 0.281 | 0.884 | 0.776 | 0.8 | 0.743 | 0.706
5 | NCI-H1793 | 0.733 | 0.773 | 0.902 | 0.73 | 0.759 | 0.29 | 0.399 | 0.304 | 0.268 | 0.38 | 0.553 | 0.616 | 0.736 | 0.544 | 0.604 | 0.576 | 0.727 | 0.471 | 0.481 | 0.593
6 | NCI-H2405 | 0.932 | 1.13 | 1.01 | 1.07 | 0.556 | 0.469 | 0.518 | 0.322 | 0.373 | 0.389 | 0.959 | 1.3 | 1.1 | 0.975 | 0.992 | 0.855 | 1.1 | 0.91 | 0.841 | 0.81
7 | NCI-H1792 |  | 0.87 | 1.03 | 0.795 | 0.864 |  | 0.398 | 0.393 | 0.47 | 0.428 | 0.873 | 0.877 | 0.855 | 0.798 | 0.844 | 0.794 | 0.743 | 0.68 | 0.641 | 0.553
8 | UMC-11 | 0.899 | 1.04 | 1.1 | 0.973 | 1.17 | 0.864 | 0.972 | 0.806 | 0.716 | 0.902 | 1.15 | 0.917 | 0.83 | 0.972 | 0.901 | 1.05 | 0.834 | 0.848 | 0.959 | 0.885
9 | NCI-H727 | 0.863 | 0.917 | 0.615 | 0.728 | 0.884 | 0.389 | 0.514 | 0.6 | 0.317 | 0.451 | 0.707 | 0.879 | 0.9 | 0.727 | 0.825 | 0.64 | 0.625 | 0.53 | 0.512 | 0.506
10 | NCI-H1299 | 0.973 | 1.03 | 1.04 | 1.01 | 0.999 | 0.834 | 0.98 | 0.9 | 0.645 | 0.479 | 0.99 | 1.01 | 0.981 | 0.938 | 0.773 | 1.06 | 1.05 | 1.03 | 1.04 | 0.929
11 | NCI-H650 | 1.22 | 1.04 | 0.887 | 0.799 | 0.942 | 0.96 | 1.01 | 1.12 | 1.06 | 0.978 | 0.799 | 0.982 | 0.784 | 0.74 | 0.583 | 1.23 | 1.25 | 1.04 | 1.03 | 0.987
12 | NCI-H838 | 1.13 | 0.987 | 0.918 | 0.951 | 0.888 | 0.535 | 0.543 | 0.477 | 0.494 | 0.682 | 1.29 | 1.13 | 0.998 | 0.965 | 0.891 | 1.06 | 1.03 | 0.935 | 0.958 | 0.942
13 | SK-LU-1 | 0.632 | 0.88 | 0.844 | 0.694 | 0.812 | 0.543 | 0.554 | 0.674 | 0.685 | 0.719 | 0.939 | 1.16 | 1.03 | 0.715 | 0.709 | 1.15 | 1.15 | 0.979 | 0.906 | 0.692
14 | SW 1573 | 1.1 | 1.09 | 1.09 | 1.03 | 1.18 | 0.534 | 0.42 | 0.521 | 0.498 | 0.497 | 0.958 | 1.09 | 1.15 | 1.09 | 1.02 | 0.829 | 0.917 | 0.757 | 0.761 | 0.595
15 | LK-2 | 1.22 | 1.19 | 1.23 | 0.878 | 0.697 | 0.707 | 0.757 | 0.811 | 0.61 | 0.769 | 0.7 | 0.827 | 0.878 | 0.782 | 0.73 | 1.33 | 1.29 | 1.04 | 1.01 | 0.919
16 | NCI-H1993 | 0.761 | 0.823 | 0.814 | 0.741 | 0.804 | 0.672 | 0.783 | 0.778 | 0.699 | 0.747 | 0.824 | 0.749 | 0.805 | 0.866 | 0.798 | 0.779 | 0.675 | 0.703 | 0.656 | 0.654
